Experiments:
[1] = 298.15 K, 101.33 kPa, Liquid; for viscosity: Capillary tube (Ostwald / Ubbelohde) method
[2] = refractive index (Na D-line) (dimensionless); settings: 298.15 K; 101.33 kPa; Liquid; Standard Abbe refractometry
[3] = xn = mol fraction of the nth substance listed; settings: 298.15 K, 101 kPa, Liquid; for viscosity: Capillary tube (Ostwald / Ubbelohde) method; for mass density: Vibrating tube method
[4] = refractive index (Na D-line) (dimensionless); xn = mol fraction of the nth substance listed; settings: 298.15 K, 101 kPa, Liquid, Standard Abbe refractometry

CCO [ethanol]
Settings	mass density [kg/m3]	refractive index	viscosity [mPa·s]
[1]	785.12	–	1.076
[2]	–	1.35937	–

CCO [ethanol] + O
Settings	mass density, [3] [kg/m3]	refractive index, [4]	viscosity, [3] [mPa·s]
x2 = 0.048	791.06	1.36013	1.158
x2 = 0.1116	799.08	1.361	1.261
x2 = 0.1599	805.32	1.3615	1.326
x2 = 0.1761	807.44	1.36168	1.36
x2 = 0.2668	820.06	1.36247	1.496
x2 = 0.301	825.06	1.36266	1.556
x2 = 0.3994	840.69	1.36295	1.726
x2 = 0.497	858.26	1.3628	1.932
x2 = 0.6122	882.42	1.36176	2.161
x2 = 0.7116	907.85	1.35974	2.385
x2 = 0.7774	926.61	1.35727	2.353
x2 = 0.8145	937.62	1.3554	2.366
x2 = 0.8529	949.42	1.35243	2.193
x2 = 0.8967	960.95	1.34783	1.92
x2 = 0.9481	976.77	1.34063	1.432

COS(=O)(=O)[O-].C[N+](CCO)(CCO)CCO [tris(2-hydroxyethyl) methylammonium methylsulfate]
Settings	refractive index	viscosity [mPa·s]
[1]	–	1236
[2]	1.48489	–

Settings	mass density [kg/m3]
[1], Vibrating tube method	1344.13

COS(=O)(=O)[O-].C[N+](CCO)(CCO)CCO [tris(2-hydroxyethyl) methylammonium methylsulfate] + CCO
Settings	mass density, [3] [kg/m3]	refractive index, [4]	viscosity, [3] [mPa·s]
x1 = 0.0482	876.74	1.3818	2.26
x1 = 0.0981	951.17	1.39899	4.523
x1 = 0.1509	1014.1	1.41373	8.351
x1 = 0.1994	1061.07	1.42476	13.32
x1 = 0.242	1097.16	1.43322	19.62
x1 = 0.2922	1132.75	1.44083	29.16
x1 = 0.3882	1187.8	1.45307	58.72
x1 = 0.4841	1229.34	1.46222	110.8
x1 = 0.5923	1264.46	1.4695	204.3
x1 = 0.6288	1273.93	1.47153	247.6
x1 = 0.6881	1288.67	1.47511	333.6
x1 = 0.7379	1299.19	1.47666	430.4
x1 = 0.7878	1309.46	1.47867	518.1
x1 = 0.8379	1318.78	1.48018	657.1
x1 = 0.8738	1324.39	1.48134	775.7
x1 = 0.9203	1331.87	1.48278	902.1

COS(=O)(=O)[O-].C[N+](CCO)(CCO)CCO [tris(2-hydroxyethyl) methylammonium methylsulfate] + O
Settings	mass density, [3] [kg/m3]	refractive index, [4]	viscosity, [3] [mPa·s]
x1 = 0.0478	1129.13	1.38887	2.341
x1 = 0.0967	1195.06	1.41769	5.054
x1 = 0.1939	1258.48	1.44581	16.79
x1 = 0.2421	1275.98	1.4539	27
x1 = 0.2894	1288.49	1.45949	41.22
x1 = 0.3872	1306.02	1.46758	86.07
x1 = 0.4858	1317.49	1.47335	159.5
x1 = 0.6064	1327.14	1.47587	290.1
x1 = 0.6698	1330.96	1.47878	390.7
x1 = 0.7822	1336.36	1.4813	569
x1 = 0.867	1339.64	1.4827	756.2
x1 = 0.9398	1342.07	1.48341	960.7
